Assay results from patent publication US10149809B2, “Skin aging inhibitor and concentrate of resveratrol 3-O-α-glucoside” (priority 2014, dated 2018).

Experiments:
[1] = SOD-like activity (SOD Test Wako kit); format: biochemical
Protocol: Resveratrol 3-O-α-glucoside was dissolved in a 15% ethanol solution to a concentration of 5, 10, or 20 mmol/L, and the resulting solution was used as a sample solution.
Using the sample solution prepared as above, the SOD-like activity was evaluated using an SOD measurement kit (SOD Test Wako; Wako Pure Chemical Industries, Ltd.).

[2] = test system: IL-1β gene; assay: Anti-inflammatory effect: IL-1β gene expression after Poly I:C-induced inflammation; format: cell-based; settings: normal human epidermal keratinocytes, Poly I:C 1 μg/mL 9 hours, then 0.001 wt % for 15 hours; control = 100%, comparative group (Poly I:C only) 1210
Protocol: Normal human epidermal keratinocytes were seeded into 12-well culture plates at 5×10^4 cells per well. As the medium, EpiLife KG-2 medium supplemented with insulin, the human […] growth factor (hEGF), hydrocortisone, anti-microbial agents, and bovine pituitary extract (BPE) was used (basal medium), and the cells were preincubated in 5% CO2 at 37° C. for 48 hours. Further, the cells were incubated for additional 48 hours in a medium obtained by removing hydrocortisone only from the basal medium (assay medium). Next, the medium was replaced with an inflammation-inducing medium obtained by supplementing the assay medium with Poly I:C (double strand of inosine ribonucleotide and cytidine ribonucleotide strands) to a concentration of 1 μg/mL, and the cells were cultured for 9 hours, thus preparing an inflammation model. […] After the culture, total RNA was extracted from the cells, and the level of expression of the proinflammatory cytokine IL-1β gene was quantified by real time PCR. […]
Taking as 100% the level of expression of the IL-1β gene for the control group, a relative ratio of the expression level of the IL-1β gene for each of the comparative group and the resveratrol 3-O-α-glucoside-supplemented group (IL-1β gene expression ratio, %) was calculated. […]

[3] = test system: human skin model (EpiDerm EPI-200; MatTek); assay: Skin cell activation effect, MTT survival rate in three-dimensional human skin model; format: cell-based; settings: 100 μL, 72 hours, water control = 100%
Protocol: Using a three-dimensional human skin model, the skin cell activation effect of resveratrol 3-O-α-glucoside was investigated.
Resveratrol 3-O-α-glucoside was prepared into an aqueous solution having a concentration of 0.02, 0.05, 0.07, or 0.1 wt %, and the resulting solution was used as a sample solution. One-hundred microliters of the sample solution were administered to the horny layer side of the human skin model (EpiDerm EPI-200; MatTek), and cultured in 5 mL of a special medium (EPI-100-ASY) at 37° C. for 72 hours. After the culture, the survival rate of cells in the skin model was measured using the MTT (Thiazolyl Blue Tetrazolium Bromide) method based on the manual, and a relative ratio of the survival rate (cell growth improvement rate; %) after the administration of each of the sample solutions was calculated, taking as 100% the survival rate of a control group to which water not containing resveratrol 3-O-α-glucoside was administered.

[4] = test system: sirtuin 1 gene; assay: Sirtuin 1 gene expression-promoting effect (1); format: cell-based; settings: normal human epidermal keratinocytes, 0.02 wt %, 72 hours; control = 100%
Protocol: Normal human epidermal keratinocytes were seeded into 12-well culture plates at 7.5×10^4 cells per well. As the medium, EpiLife KG-2 medium supplemented with insulin, hEGF, hydrocortisone, anti-microbial agents, and BPE was used (basal medium), and the cells were preincubated in 5% CO2 at 37° C. for 72 hours. The medium was removed and then replaced with a sample medium supplemented with resveratrol 3-O-α-glucoside to a concentration of 0.02 wt %, and the cells were cultured in 5% CO2 at 37° C. After 72 hours, total RNA was extracted from the cells, and the level of expression of the sirtuin 1 gene was quantified by real time PCR. As a control group, cells were cultured without resveratrol 3-O-α-glucoside, and total RNA collected from these cells was used.
Taking as 100% the level of expression of the sirtuin 1 gene for the control group, a relative ratio of the expression level of the sirtuin 1 gene for the resveratrol 3-O-α-glucoside-supplemented group (SIRT 1 gene expression ratio, %) was determined. In the measurement of the expression level of the sirtuin 1 gene, PPIA was used for internal standard correction.

[5] = test system: matrix metalloproteinase 9 (MMP9) gene; assay: MMP9 gene expression in normal human dermal fibroblasts; format: cell-based; settings: 0.001 wt %, 24 hours, control = 100%
Protocol: Using normal human dermal fibroblasts, the effect of resveratrol 3-O-α-glucoside on matrix metalloproteinase 1 (MMP1) and 9 (MMP9) genes in the dermis was investigated.
Normal human dermal fibroblasts were seeded into 12-well culture plates at 9×10^4 cells per well. As the medium, 10 vol % FBS (Fetal Bovine Serum)-containing DMEM medium (basal medium) was used, and the cells were preincubated in 5% CO2 at 37° C. for 24 hours. The medium was removed and then replaced with a basal medium supplemented with 0.001 wt % of resveratrol 3-O-α-glucoside, and the cells were cultured in 5% CO2 at 37° C. After 24 hours, total RNA was extracted from the cells, and the levels of expression of the MMP1 and MMP9 genes were quantified by real time PCR. As a control group, cells were cultured without resveratrol 3-O-α-glucoside, and total RNA collected from these cells was used.
Taking as 100% the level of expression of each of the MMP1 and MMP9 genes for the control group, a relative ratio of the expression level of each of the MMP1 and MMP9 genes for the resveratrol 3-O-α-glucoside-supplemented group (MMP1 and MMP9 gene expression ratios, %) was determined. In the measurement of the expression level of each of the MMP1 and MMP9 genes, GAPDH (glyceraldehyde 3-phosphate dehydrogenase) was used for internal standard correction.

For `OC[C@H]1O[C@H](Oc2cc(O)cc(C=Cc3ccc(O)cc3)c2)[C@H](O)[C@@H](O)[C@@H]1O` [Resveratrol 3-O-α-Glucoside, resveratrol 3-O-α-glucoside], which “SOD-Like Activity (%)” value ([1]; 5 mmol/L in the sample solution (15% ethanol)) is on record?
Its value is 18%.

And the “SOD-Like Activity (%)” value ([1]; 10 mmol/L in the sample solution (15% ethanol))?
Its value is 35%.

And the “SOD-Like Activity (%)” value ([1]; 20 mmol/L in the sample solution (15% ethanol))?
The value was 47%.

And the “IL-1β Gene Expression Ratio (%)” value [2]?
The value was 885%.

And the “Cell Growth Improvement Rate (%)” value ([3]; 0.02 wt % aqueous solution)?
Its value is 106%.

What about the “Cell Growth Improvement Rate (%)” value ([3]; 0.05 wt % aqueous solution) of the same compound?
The value was 115%.

And the “Cell Growth Improvement Rate (%)” value ([3]; 0.07 wt % aqueous solution)?
Its value is 116%.

What about the “Cell Growth Improvement Rate (%)” value ([3]; 0.1 wt % aqueous solution) of the same compound?
The value was 117%.

What about the “SIRT 1 Gene Expression Ratio (%)” value [4] of the same compound?
Its value is 171%.

And the “MMP9 Gene Expression Ratio (%)” value [5]?
The value was 45%.
